This note sets out measurements from patent US7129246B2, “N-adamantlmethyl derivatives and intermediates as pharmaceutical compositions and processes for their preparation” (AstraZeneca AB, priority 2001, dated 2006).

One series deals with T1, P2X7 receptor (Homo sapiens, UniProt Q99572).
T1 construct: 200 μl of a suspension of THP-1 cells; endogenous in cells; host or cells: THP-1 cells
T1 sequence (Q99572 1-595): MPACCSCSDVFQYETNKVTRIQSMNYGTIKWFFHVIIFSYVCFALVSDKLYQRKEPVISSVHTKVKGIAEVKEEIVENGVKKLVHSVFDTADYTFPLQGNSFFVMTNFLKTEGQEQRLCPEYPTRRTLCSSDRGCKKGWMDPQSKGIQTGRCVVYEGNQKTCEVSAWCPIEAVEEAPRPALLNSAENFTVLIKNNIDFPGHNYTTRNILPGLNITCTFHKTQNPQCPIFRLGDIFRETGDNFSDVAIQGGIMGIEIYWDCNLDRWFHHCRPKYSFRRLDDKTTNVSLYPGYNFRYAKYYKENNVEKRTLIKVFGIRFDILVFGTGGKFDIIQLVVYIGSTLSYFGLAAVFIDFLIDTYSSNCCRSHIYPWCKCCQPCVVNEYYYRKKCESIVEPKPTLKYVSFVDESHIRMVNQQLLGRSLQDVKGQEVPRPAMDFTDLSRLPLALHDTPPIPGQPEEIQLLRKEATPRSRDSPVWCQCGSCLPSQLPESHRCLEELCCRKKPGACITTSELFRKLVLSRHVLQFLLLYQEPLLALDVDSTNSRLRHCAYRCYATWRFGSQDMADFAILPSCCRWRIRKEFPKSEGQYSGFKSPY
Kind of series: P2X7 receptor antagonist test: bbATP-induced ethidium bromide fluorescence in THP-1 cells. Type of series: cell-based. The note with it: bbATP agonist, 37° C. for one hour, read-out: pIC50 (negative logarithm of the concentration of test compound necessary to reduce the bbATP agonist activity by 50%) (converted). From the text: Certain compounds such as benzoylbenzoyl adenosine triphosphate (bbATP) are known to be agonists of the P2X7 receptor, effecting the formation of pores in the plasma membrane (Drug Development Research (1996), 37(3) p. 126). Consequently, when the receptor is activated using bbATP in the presence of ethidium bromide (a fluorescent DNA probe), an increase in the fluorescence of intracellular DNA-bound ethidium bromide is observed. The increase in fluorescence can be used as a measure of P2X7 receptor activation and therefore to quantify the effect of a compound on the P2X7 receptor.
In this manner, each of the title compounds of the Examples was tested for antagonist activity at the P2X7 receptor. Thus, the test was performed in 96-well flat bottomed microtitre plates, the wells being filled with 250 μl of test solution comprising 200 μl of a suspension of THP-1 cells (2.5×10^6 cells/ml) containing 10^−4M ethidium bromide, 25 μl of a high potassium buffer solution containing 10^−5M bbATP, and 25 μl of the high potassium buffer solution containing 3×10^−5M test compound. The plate was covered with a plastics sheet and incubated at 37° C. for one hour. The plate was then read in a Perkin-Elmer fluorescent plate reader, excitation 520 nm, emission 595 nm, slit widths: Ex 15 nm, Em 20 nm. […]

Structures can show the parent of a compound that is named as a salt.

On to `CNCCCc1cc(C(=O)NCC23CC4CC(CC(C4)C2)C3)c(Cl)cn1` (as salt: hydrochloride) [Example 34, N-(1-Adamantylmethyl)-5-chloro2-[3-(methylamino)propyl]isonicotinamide hydrochloride], for which the melting point lay within 210 to 212 °C.

In the case of `O=C(NCC12CC3CC(CC(C3)C1)C2)c1cc(CCCNCCO)ncc1Cl` (as salt: hydrochloride) [Example 11, N-(1-Adamantylmethyl)5-chloro-2-{3-[(2-hydroxyethyl)amino]propyl}-isonicotinamide hydrochloride], the melting point was 204 to 205 °C (dec.).

Turning to `O=C(NCC12CC3CC(CC(C3)C1)C2)c1cc(OCCNCCCO)ncc1Cl` [Example 12, N-(1-Adamantylmethyl)-5-chloro-2-{2-[(3-hydroxypropyl)amino]ethoxy}isonicotinamide, hydrochloride], the IC50 at P2X7 receptor is 79.4 nM.

As to `C[C@H](CO)NCCCc1cc(C(=O)NCC23CC4CC(CC(C4)C2)C3)c(Cl)cn1` (as salt: hydrochloride) [Example 9, N-(1-Adamantylmethyl)-5-chloro-2-(3-{[(1R)-2-hydroxy-1-methylethyl]amino}propyl)isonicotinamide, dihydrochloride], the melting point was 205 to 208 °C.

Regarding `C[C@@H](CO)NCCCc1cc(C(=O)NCC23CC4CC(CC(C4)C2)C3)c(Cl)cn1` (as salt: hydrochloride) [Example 10, N-(1-Adamantylmethyl)-5-chloro-2-(3-{[(1S)-2-hydroxy-1-methylethyl]amino}propyl)isonicotinamide, dihydrochloride], the melting point was 205 to 208 °C.

`CC(C)(O)CNCCCc1cc(C(=O)NCC23CC4CC(CC(C4)C2)C3)c(Cl)cn1` (as salt: hydrochloride) [Example 19, N-(1-Adamantylmethyl)-5-chloro-2-{3-[(2-hydroxy-2-methylpropyl)amino]propyl}isonicotinamide dihydrochloride] came in with a melting point of 236 to 238 °C.

As for `CN(CCO)CCCc1cc(C(=O)NCC23CC4CC(CC(C4)C2)C3)c(Cl)cn1` [Example 26, N-(1-Adamantylmethyl)-5chloro-2-{3-[(2-hydroxyethyl)(methyl)amino]propyl}isonicotinamide dihydrochloride], the IC50 on P2X7 receptor was 15.8 nM.

Turning to `O=C(NCC12CC3CC(CC(C3)C1)C2)c1cc(CCCNCCCO)ncc1Cl` [Example 1, N-(1-Adamantylmethyl)-5-chloro-2-{3-[(3-hydroxypropyl)-amino]propyl}isonicotinamide], the melting point lay within 84 to 85 °C.

For `CNCCNCc1cc(C(=O)NCC23CC4CC(CC(C4)C2)C3)c(Cl)cn1` (as salt: hydrochloride) [Example 31, N-(1-Adamantylmethyl)-5-chloro-2-({[2-(methylamino)ethyl]amino}methyl)isonicotinamide dihydrochloride], the melting point was in the range of 259 to 262 °C.

Take `NCCCc1cc(C(=O)NCC23CC4CC(CC(C4)C2)C3)c(Cl)cn1` (as salt: hydrochloride) [Example 6, N-(1-Adamantylmethyl)-2-(3-aminopropyl)-5-chloroisonicotinamide hydrochloride]: the melting point was 150 °C (dec.).

`O=C(NCC12CC3CC(CC(C3)C1)C2)c1cc(CCCNCCNCCO)ncc1Cl` (as salt: hydrochloride) [Example 23, N-(1-Adamantylmethyl)-5-chloro-2-[3-({2-[(2-hydroxyethyl)amino]ethyl}amino)propyl]isonicotinamide dihydrochloride] gave a melting point of 231 to 233 °C.

The compound `O=C(NCC12CC3CC(CC(C3)C1)C2)c1cc(CCCNCCCO)cnc1Cl` [Example 3, N-(1-Adamantylmethyl)-2-chloro-5-{3-[(3-hydroxypropyl)amino]propyl}nicotinamide] returned a melting point of 105 to 107 °C.

Regarding `O=C(NCC12CC3CC(CC(C3)C1)C2)c1cc(CCCNC[C@@H](O)CO)ncc1Cl` (as salt: hydrochloride) [Example 16, N-(1-Adamantylmethyl)-5-chloro-2-(3-{[(2R)-2,3-dihydroxypropyl]amino}propyl)isonicotinamide, dihydrochloride], the melting point lay in the range of 217 to 219 °C.

Take `CN(CCO)CCCc1cc(C(=O)NCC23CC4CC(CC(C4)C2)C3)c(Cl)cn1` (as salt: hydrochloride) [Example 26, N-(1-Adamantylmethyl)-5chloro-2-{3-[(2-hydroxyethyl)(methyl)amino]propyl}isonicotinamide dihydrochloride]: the melting point fell in the range of 206 to 208 °C.

Take `CCNCCCc1cc(C(=O)NCC23CC4CC(CC(C4)C2)C3)c(Cl)cn1` (as salt: hydrochloride) [Example 7, N-(1-Adamantylmethyl)-5-chloro-2-[3-(ethylamino)propyl]isonicotinamide hydrochloride]: the melting point is 206 to 208 °C (dec.).

For the compound `C[C@@H](O)CNCCCc1cc(C(=O)NCC23CC4CC(CC(C4)C2)C3)c(Cl)cn1` (as salt: hydrochloride) [Example 28, N-(1-Adamantylmethyl)-5-chloro-2-(3-{[(2R)-2-hydroxypropyl]amino}propyl)isonicotinamide, dihydrochloride], the melting point was 224 to 226 °C.

For `CNCCCNCCCc1cc(C(=O)NCC23CC4CC(CC(C4)C2)C3)c(Cl)cn1` (as salt: trifluoroacetate) [Example 22, N-(1-Adamantylmethyl)-5-chloro-2-(3-{[3-(methylamino)propyl]amino}propyl)isonicotinamide bis(trifluoroacetate)], the melting point lay in the range of 210 to 212 °C.

In turn, `O=C(NCC12CC3CC(CC(C3)C1)C2)c1cc(CCCNC(CO)CO)ncc1Cl` (as salt: hydrochloride) [Example 25, N-(1-Adamantylmethyl)-5-chloro-2-(3-{[2-hydroxy-1-(hydroxymethyl)ethyl]amino}propyl)isonicotinamide dihydrochloride] had a melting point of 201 to 203 °C.

For the compound `O=C(NCC12CC3CC(CC(C3)C1)C2)c1cc(CCNCCCO)ncc1Cl` (as salt: hydrochloride) [Example 33, N-(1-Adamantylmethyl)-5-chloro-2-{3-[(3-hydroxypropyl)amino]ethyl}isonicotinamide dihydrochloride], the melting point is 240 to 242 °C.

In turn, `CNCCCNCc1cc(C(=O)NCC23CC4CC(CC(C4)C2)C3)c(Cl)cn1` (as salt: hydrochloride) [Example 29, N-(1-Adamantylmethyl)-5chloro-2-({[3-(methylamino)propyl]amino}methyl)isonicotinamide dihydrochloride] returned a melting point of 285 to 287 °C.

For `CNCCNCCCc1cc(C(=O)NCC23CC4CC(CC(C4)C2)C3)c(Cl)cn1` (as salt: hydrochloride) [Example 21, N-(1-Adamantylmethyl)-5-chloro-2-(3-{[2-(methylamino)ethyl]amino}propyl)isonicotinamide dihydrochloride], the melting point fell in the range of 216 to 219 °C.

`O=C(NCC12CC3CC(CC(C3)C1)C2)c1cc(CNCCNCCO)ncc1Cl` (as salt: hydrochloride) [Example 30, N-(1-Adamantylmethyl)-5-chloro-2-[({2-[(2-hydroxyethyl)amino]ethyl}amino)methyl]isonicotinamide dihydrochloride]: the melting point is 289 to 292 °C.

Consider `O=C(NCC12CC3CC(CC(C3)C1)C2)c1cc(CCNCCO)ncc1Cl` (as salt: hydrochloride) [Example 32, N-(1-Adamantylmethyl)-5-chloro-2-{3-[(2-hydroxyethyl)amino]ethyl}isonicotinamide dihydrochloride], for which the melting point is 242 to 244 °C.
